Measured values: the RepoRT retention time repository
Where a name gives a salt, the structure may show the parent alone.

Assay: RP, Waters ACQUITY UPLC HSS T3, 150 × 2.1 mm, 1.8 µm, 45 °C, 0.6 mL/min, estimated dead time 0.55 min; A: water + 0.1% formic acid, pH 3; B: acetonitrile + 0.1% formic acid, pH 3; gradient (min/%B) 0/1 0.1/1 10/55 10.15/65 10.30/75 10.45/85 10.60/95 10.70/100 11/100 11.55/100 11.65/1 11.70/1 11.80/1 11.90/1 12/1 12.10/1 12.15/1 12.65/1
Conditions: stereoisomer not certain

Compound | LC retention time [min]
CC(CC(=O)O)C1CCC2C3C(O)CC4CC(O)CCC4(C)C3CC(O)C12C (stereo unspecified) [23-Norcholic acid] | 8.58
CC12CCC3C(CC=C4CC(OC5OC(C(=O)O)C(O)C(O)C5O)CCC43C)C1CCC2=O (stereo unspecified) [Dehydroisoandrosterone 3-glucuronide] | 7.43
O=c1[nH]c(=O)c2[nH]cnc2[nH]1 [Xanthine] | 1.31
O=C(O)c1ccccc1O [Salicylic acid] | 5.48
O=C1O[C@H]([C@@H](O)CO)C(O)=C1OS(=O)(=O)O [L-Ascorbic acid 2-sulfate] | 0.71
Nc1ncnc2c1ncn2C1OC2COP(=O)(O)OC2C1O (stereo unspecified) [Adenosine 3',5'-cyclic monophosphate] | 1.62
O=S(=O)(O)Oc1c[nH]c2ccccc12 [Indoxyl sulfate] | 3.4
NCCc1ccc(O)c(OS(=O)(=O)O)c1 [Dopamine 3-O-sulfate] | 1.56
CC(CCC(=O)NCCS(=O)(=O)O)C1CCC2C3CCC4CC(OS(=O)(=O)O)CCC4(C)C3CCC12C (stereo unspecified) [Taurolithocholic acid 3-sulfate] | 8.93
O=c1[nH]cnc2nc[nH]c12 [Hypoxanthine] | 1.2
O=C1NS(=O)(=O)c2ccccc21 [Saccharin] | 2.7
O=C(O)Cc1ccc(O)cc1 [4-Hydroxyphenylacetic acid] | 3.41
O=C(O)c1cc(O)ccc1O [2,5-Dihydroxybenzoic acid] | 3.16
O=S(=O)(O)Oc1ccccc1 [Phenol sulfate] | 3.01
CC(CCC(=O)O)C1CCC2C3C(O)CC4CC(O)CCC4(C)C3CC(O)C12C (stereo unspecified) [Cholic acid] | 9.75
O=C(O)C(O)Cc1ccc(O)cc1 (stereo unspecified) [4-Hydroxyphenyllactic acid] | 2.81
Cc1cc2nc3c(=O)[nH]c(=O)nc-3n(CC(O)C(O)C(O)CO)c2cc1C (stereo unspecified) [Riboflavin] | 3.82
O=C(O)C(O)Cc1c[nH]c2ccccc12 (stereo unspecified) [Indolelactic acid] | 4.86
Cn1c(=O)[nH]c(=O)c2c1[nH]c(=O)n2C [3,7-Dimethyluric acid] | 1.94
CC(O)C1CCC2C3CCC4CC(OC5OC(C(=O)O)C(O)C(O)C5O)CCC4(C)C3CCC12C (stereo unspecified) [Pregnanediol-3-glucuronide] | 9.23
CC(CCC(=O)NCC(=O)O)C1CCC2C3C(O)CC4CC(O)CCC4(C)C3CC(O)C12C (stereo unspecified) [Glycocholic acid] | 8.4

Compound | LC retention time [min]
Cn1c(=O)c2[nH]cnc2n(C)c1=O [Theophylline] | 2.76
CC1=CC(=O)NS(=O)(=O)O1 [Acesulfame] | 1.9
O=C(O)c1ccc(O)cc1 [4-Hydroxybenzoic acid] | 3.16
CC(=O)C1CCC2C3CC=C4CC(OS(=O)(=O)O)CCC4(C)C3CCC12C (stereo unspecified) [Pregnenolone sulfate] | 9.81
O=C(O)Cc1cccc(O)c1 [3-Hydroxyphenylacetic acid] | 3.74
NC(Cc1ccccc1)C(=O)O (stereo unspecified) [Phenylalanine] | 2.05
O=C(O)c1c(O)cccc1O [2,6-Dihydroxybenzoic acid] | 3.76
Cc1ccc(OC2OC(C(=O)O)C(O)C(O)C2O)cc1 (stereo unspecified) [p-Cresol glucuronide] | 4.3
CC(C)Cc1ccc(C(C)C(=O)OC2OC(C(=O)O)C(O)C(O)C2O)cc1 (stereo unspecified) [Ibuprofen acyl glucuronide] | 8.62
COc1cc(C(O)C(=O)O)ccc1O (stereo unspecified) [Vanillylmandelic acid] | 1.97
O=C(O)C1OC(Oc2c[nH]c3ccccc23)C(O)C(O)C1O (stereo unspecified) [Indoxyl glucuronide] | 3.39
Cc1ccc(OS(=O)(=O)O)cc1 [p-Cresol sulfate] | 4.2
NC(CCCCn1c(C=O)ccc1CO)C(=O)O (stereo unspecified) [Pyrraline] | 2.49
O=C(O)c1cc(O)cc(O)c1 [3,5-Dihydroxybenzoic acid] | 2.35
O=c1[nH]cnc2c1ncn2C1OC(CO)C(O)C1O (stereo unspecified) [Inosine] | 1.61
Cn1c(=O)c2c([nH]c(=O)n2C)n(C)c1=O [1,3,7-Trimethyluric acid] | 2.95
CC(CCC(=O)O)C1CCC2C3C(=O)CC4CC(O)CCC4(C)C3CC(O)C12C (stereo unspecified) [7-Ketodeoxycholic acid] | 8.65
O=C(O)C(O)Cc1ccccc1 (stereo unspecified) [Phenyllactic acid] | 4.51
CCc1ccc(OS(=O)(=O)O)cc1 [4-Ethylphenylsulfate] | 5.73
NC(Cc1ccc(OS(=O)(=O)O)cc1)C(=O)O (stereo unspecified) [O-Sulfotyrosine] | 1.5
CC(CCC(=O)NCC(=O)O)C1CCC2C3C(O)CC4CC(O)CCC4(C)C3CCC12C (stereo unspecified) [Glycoursodeoxycholic acid] | 8.4

Results, then the molecule that gave them:

LC retention time [min] | Compound
1.37 | O=C(O)CCC(=O)O [Succinic acid]
2.19 | CC(CC(=O)O)C(=O)O (stereo unspecified) [Methylsuccinic acid]
2.59 | O=C(O)CCCCC(=O)O [Adipic acid]
2.45 | O=C(O)CNC(=O)c1ccc(O)cc1 [4-Hydroxyhippuric acid]
2.45 | CCC(C)(O)C(=O)O (stereo unspecified) [2-Hydroxy-2-methylbutyric acid]
2.92 | CC=C(C)C(=O)NCC(=O)O [Tiglylglycine]
2.31 | O=C(O)CC(Nc1ncnc2c1ncn2C1OC(CO)C(O)C1O)C(=O)O (stereo unspecified) [Succinyladenosine]
2.07 | CC(C)C(=O)NCC(=O)O [Isobutyrylglycine]
0.91 | CC(=O)NC(CCCN=C(N)N)C(=O)O [Na-Acetyl-L-arginine]
4.66 | CC(=O)NC(Cc1ccccc1)C(=O)O (stereo unspecified) [N-Acetylphenylalanine]
1.65 | Nc1c(C(=O)NC(CC(=O)O)C(=O)O)ncn1C1OC(CO)C(O)C1O (stereo unspecified) [Succinylaminoimidazole carboxamide riboside]
1.12 | O=C(O)CC(O)(CC(=O)O)C(=O)O [Citric acid]
5.48 | O=C(O)CCCCCCCC(=O)O [Azelaic acid]
2.73 | O=C(O)CNC(=O)c1cccc(O)c1 [3-Hydroxyhippuric acid]
0.77 | O=C(O)CC(C(=O)O)C(O)C(=O)O (stereo unspecified) [Isocitric acid]
1.55 | CC(O)(CC(=O)O)CC(=O)O [3-Hydroxy-3-methylglutaric acid]
3.46 | O=C(O)CCCCCC(=O)O [Pimelic acid]
4.03 | CCC(C)C(NC(C)=O)C(=O)O (stereo unspecified) [N-Acetylisoleucine]
1.3 | O=C(O)C=C(CC(=O)O)C(=O)O [Cis-aconitic acid]
1.35 | CC(=O)NC(CCC(=O)O)C(=O)O (stereo unspecified) [N-acetylglutamic acid]
4.96 | CC(=O)NC(Cc1c[nH]c2ccccc12)C(=O)O (stereo unspecified) [N-Acetyltryptophan]
2.31 | CC(C)(CO)C(O)C(=O)NCCC(=O)O (stereo unspecified) [Pantothenic acid]
1 | CC(=O)NC(CC(=O)O)C(=O)O (stereo unspecified) [N-Acetylaspartic acid]
3.22 | CCC(C)C(=O)C(=O)O (stereo unspecified) [3-Methyl-2-oxovaleric acid]
